Reference: patent US20220251124A1, “3,5-BIS(PHENYL)-1H-HETEROARYL DERIVATIVES AS MEDICAMENTS” (INSTITUTE OF BIOTECHNOLOGY CAS, V.V.I., priority 2019, published 2022)
pIC50: −log10 of the molar value.

How the values were obtained:
Type in all cases: cell-based
leukemia cells = assay: alamarBlue viability, leukemia cells overall; conditions: several leukemia cells, 48 hrs; read-out: IC50 (suppression of proliferation to 50%)
Experimental: (§1) Compound 1 and a comparative compound deferasirox (DFX) were tested in their efficacy to kill/suppress proliferation of several leukemia cells. Briefly, 10.000 cells per well were seeded in a 96-well plate on one day and the next day the tested compounds were added and incubated with the cells for 48 hrs. Cellular viability was determined as the ability to reduce the probe alamarBlue™ Cell Viability Reagent.

[1] = tested on: non-malignant fibroblasts (HFP1); assay: crystal violet assay, cellular viability, 48 hrs; conditions: Fibroblast
Experimental: [The source words this procedure for another cell line and reports this cell line under the same test.] (§2) Compound 1 and a comparative compound deferasirox (DFX) were tested in their efficacy to kill/suppress proliferation of malignant breast cancer MCF7 cells representing estrogen-dependent type of breast cancer. Briefly, 10.000 cells per well were seeded in a 96-well plate on one day and the next day the tested compounds were added and incubated with the cells for 48 hrs. The cells were then fixed with 4% paraformaldehyde, stained with 0.05% crystal violet, washed with PBS, and solubilized in 1% SDS. The absorbance of the plate at 595 nm was then measured, quantifying the number of viable cells.
(§3) Compounds 1, 2 and the comparative compound deferasirox were tested in their efficacy to suppress proliferation/kill several malignant cell lines of breast, pancreatic and ovarian origin (MCF7, MDA-MB-231, BxPC3 and OVCAR3). The procedure is identical to that in example 12.

BxPC3 [2] = assay: crystal violet assay, cellular viability, 48 hrs; conditions: Homo sapiens, BXPC-3
Experimental: as §2, §3

OVCAR3 = assay: crystal violet assay, cellular viability, 48 hrs; conditions: Homo sapiens, OVCAR-3
Experimental: as §2, §3

T47D = assay: crystal violet assay, cellular viability, 48 hrs; conditions: T47D (parental/control)
Experimental: [The source words this procedure for another cell line and reports this cell line under the same test.] as §2, §3

BxPC3 [3] = assay: annexin V/PI staining, cell death induction, 48 hrs; conditions: 500 μM
Experimental: (§4) This effect seems to be based mainly on the cytostatic effect of compound 1. To define the ability to kill cells, cell death-inducing potency (cytotoxic efficacy) of DFX and compound 1 have been tested via annexin V/PI staining commonly used as a measure of apoptotic/necrotic cell death. Briefly, cells were seeded in 12-well plate at 100,000 per well, incubated with the selected compounds for 48 hours, then floating cells were spun, adherent cells trypsinized and spun as well followed by the staining with AnnexinV-FITC and PI probes. Cells were then washed with PBS and measured via Fluorescence Activated Sorter.

non-malignant HFP1 cells = assay: as above; conditions: 500 μM, 48 hrs, HFP1
Experimental: as §4

non malignant cells MRC5 = assay: as above; conditions: 500 μM
Experimental: as §4

OVCAR = assay: as above; conditions: 500 μM
Experimental: as §4

MCF7 = assay: as above; conditions: 500 μM
Experimental: as §4
Since compound 1 is an iron chelator, we have evaluated the effect of pre-loading compound 1 with iron at a 2:1 ratio and then applying it to the cells, followed by measurement of cell death using the Annexin V/PI staining as in example 4.

UPF1H leukemia cell line [4] = assay: AnnexinV/PI assay, cell death induction, 48 hrs
Experimental: as §4
(§5) This effect seems to be based mainly on the cytostatic effect of compound 1. To define the ability to kill cells, cell death-inducing potency (cytotoxic efficacy) of DFX and compound 1 have been tested via annexin V/PI staining commonly used as a measure of apoptotic/necrotic cell death (see example 15). […] Compound 1 killed cancer cells with effects higher by almost 3 orders of magnitude than those of deferasirox. Such results are unprecedented and very unexpected.

UPF4D leukemia cell line [5] = assay: AnnexinV/PI assay, cell death induction, 48 hrs
Experimental: as §4, §5

UPF9T leukemia cell line [6] = assay: AnnexinV/PI assay, cell death induction, 48 hrs
Experimental: as §4, §5

[7] = tested on: UPF16A leukemia cell line; assay: AnnexinV/PI assay, cell death induction, 48 hrs
Experimental: as §4, §5

UPF1H leukemia cell line [8] = assay: alamarBlue Cell Viability Reagent, 48 hrs; conditions: 48 hrs
Experimental: as §1

UPF4D leukemia cell line [9] = assay: alamarBlue Cell Viability Reagent, 48 hrs; conditions: 48 hrs, UPF4D
Experimental: as §1

UPF9T leukemia cell line [10] = assay: alamarBlue Cell Viability Reagent, 48 hrs; conditions: 48 hrs, UPF9T
Experimental: as §1

[11] = tested on: UPF16A leukemia cell line; assay: alamarBlue Cell Viability Reagent, 48 hrs; conditions: 48 hrs, UPF16A
Experimental: as §1

[12] = tested on: tamoxifen resistant MCF7 (Tam5R); assay: crystal violet assay, tamoxifen resistant cells; conditions: MCF7 Tam5R grown in the presence of 5 μM tamoxifen
Experimental: as §2
(§6) To test whether compound 1 is active against resistant cancer cells, we used tamoxifen-resistant MCF7, T47D. The IC50 values were again measured with the crystal violet assay performed as in example 12. We have documented that there is a significant difference in the ability of compound 1 to induce cytostatic and cytotoxic effects between the parental cells sensitive to tamoxifen and the resistant ones that grow even in the presence of tamoxifen (Table 11), yet the IC50 values are still in the nM range, making this compound very efficient.

[13] = tested on: tamoxifen resistant T47D (Tam5R); assay: crystal violet assay, tamoxifen resistant cells; conditions: Homo sapiens, T47D Tam5R grown in the presence of 5 μM tamoxifen
Experimental: as §2, §6

[14] = 1 μM, read-out: viable cells compared to non-treated controls
[15] = 3 μM, read-out: viable cells compared to non-treated controls
[16] = 30 μM, read-out: viable cells compared to non-treated controls
[17] = 100 μM, read-out: viable cells compared to non-treated controls
[18] = 500 μM, read-out: viable cells compared to non-treated controls

Q: With `O=C(O)c1ccc(-n2nc(-c3ccccc3O)nc2-c2ccccc2O)cc1` [DFX, deferasirox, reference compound] as the compound, how does the pIC50 (leukemia cells) read?
A: 4.10 to 5.30

Q: What about the pIC50 [1] of the same compound?
A: 4.42

Q: What about the pIC50 (BxPC3 [2]) of the same compound?
A: 4.64

Q: And the pIC50 (OVCAR3)?
A: 4.72

Q: And the pIC50 (T47D; Homo sapiens, T47D, 48 h)?
A: 4.22

Q: What about the pIC50 (T47D) of the same compound?
A: 4.22

Q: And the “dead cells (AnnexinV/PI)” value (BxPC3 [3])?
A: 45.8 (21.3) %

Q: What about the “dead cells (AnnexinV/PI)” value (non-malignant HFP1 cells) of the same compound?
A: 35.6 (1.5) %

Q: What about the “dead cells (AnnexinV/PI)” value (non malignant cells MRC5) of the same compound?
A: 43.7 (7.7) %

Q: And the “dead cells (AnnexinV/PI)” value (OVCAR)?
A: 59.7 (4.6) %

Q: What about the “dead cells (AnnexinV/PI)” value (MCF7) of the same compound?
A: 85.2 (3.3) %

Q: And the “dead cells (AnnexinV/PI)” value (UPF1H leukemia cell line [4]; 1 μM)?
A: 9.9 (1.3) %

Q: What about the “dead cells (AnnexinV/PI)” value (UPF1H leukemia cell line [4]; 10 μM) of the same compound?
A: 95.8 (0.2) %

Q: And the “dead cells (AnnexinV/PI)” value (UPF4D leukemia cell line [5]; 1 μM)?
A: 16.9 (16.9) %

Q: What about the “dead cells (AnnexinV/PI)” value (UPF4D leukemia cell line [5]; 10 μM) of the same compound?
A: 77.3 (3.5) %

Q: What about the “dead cells (AnnexinV/PI)” value (UPF9T leukemia cell line [6]; 1 μM) of the same compound?
A: 13.7 (3.3) %

Q: What about the “dead cells (AnnexinV/PI)” value (UPF9T leukemia cell line [6]; 10 μM) of the same compound?
A: 46.6 (5.2) %

Q: And the “dead cells (AnnexinV/PI)” value ([7]; 1 μM)?
A: 13.7 (5.0) %

Q: What about the “dead cells (AnnexinV/PI)” value ([7]; 10 μM) of the same compound?
A: 48.4 (16.2) %

Q: What about the viability at 1 µM (UPF1H leukemia cell line [8]; [14]) of the same compound?
A: 94.3%

Q: What about the viability at 3 µM (UPF1H leukemia cell line [8]; [15]) of the same compound?
A: 88%

Q: And the viability at 30 µM (UPF1H leukemia cell line [8]; [16])?
A: 7.3%

Q: What about the viability at 100 µM (UPF1H leukemia cell line [8]; [17]) of the same compound?
A: 13.3%

Q: What about the viability at 500 µM (UPF1H leukemia cell line [8]; [18]) of the same compound?
A: 22.4%

Q: And the pIC50 (UPF1H leukemia cell line [8]; alamarBlue, read-out: IC50)?
A: 5.02

Q: What about the viability at 1 µM (UPF4D leukemia cell line [9]; [14]) of the same compound?
A: 92.7%

Q: And the viability at 3 µM (UPF4D leukemia cell line [9]; [15])?
A: 61.9%

Q: And the viability at 30 µM (UPF4D leukemia cell line [9]; [16])?
A: 2.9%

Q: And the viability at 100 µM (UPF4D leukemia cell line [9]; [17])?
A: 4%

Q: What about the viability at 500 µM (UPF4D leukemia cell line [9]; [18]) of the same compound?
A: 11.1%

Q: What about the pIC50 (UPF4D leukemia cell line [9]; alamarBlue, read-out: IC50) of the same compound?
A: 5.31

Q: What about the viability at 1 µM (UPF9T leukemia cell line [10]; [14]) of the same compound?
A: 90.8%

Q: What about the viability at 3 µM (UPF9T leukemia cell line [10]; [15]) of the same compound?
A: 81.3%

Q: And the viability at 30 µM (UPF9T leukemia cell line [10]; [16])?
A: 49.2%

Q: What about the viability at 100 µM (UPF9T leukemia cell line [10]; [17]) of the same compound?
A: 53.3%

Q: And the viability at 500 µM (UPF9T leukemia cell line [10]; [18])?
A: 39%

Q: What about the pIC50 (UPF9T leukemia cell line [10]; alamarBlue, read-out: IC50) of the same compound?
A: 4.10

Q: What about the viability at 1 µM [11, 14] of the same compound?
A: 82.5%

Q: What about the viability at 3 µM [11, 15] of the same compound?
A: 61.3%

Q: And the viability at 30 µM [11, 16]?
A: 34.7%

Q: And the viability at 100 µM [11, 17]?
A: 10.6%

Q: What about the viability at 500 µM [11, 18] of the same compound?
A: 9.7%

Q: And the pIC50 ([11]; alamarBlue, read-out: IC50)?
A: 5.12

Q: What about the pIC50 [12] of the same compound?
A: 4.82

Q: And the pIC50 [13]?
A: 4.08
